In patent US20130045940A1, “COMPOSITION COMPRISING AS ACTIVE INGREDIENT L-CARNITINE IN COMBINATION WITH A SOLAR FILTER, FOR THE PREVENTION AND/OR TREATMENT OF PATHOLOGIES OF THE EYE DUE TO ULTRAVIOLET RADIATION” (SIGMA-TAU INDUSTRIE FARMACEUTICHE RIUNITE S.P.A., priority 2010, published 2013):

Key:
[1] = tested on: functional retinal status; assay: functional retinal status (FERG, mfERG) in subjects with age-related maculopathy, 6 months of eye drops; format: in vivo, human; conditions: for amplitudes found with the FERG / mfERG: after 6 months treatment vs before; for SCORE AFTER 6 MONTHS OF TREATMENT (ARBITRARY SCALE): three times a day for 6 months, 0 = no variation respect to time zero, −10 = worsening of the symptoms
Protocol: In order to evaluate the protective effect of the eye drops being examined on the internal structures of the eye in subjects suffering from age-related maculopathy, the following experimental procedure was carried out. 24 Subjects between 49 and 74 years of age, irrespective of gender, received for 6 months the eye drops of Example 1 (complete composition) three times a day. Subjects were subdivided into 4 equal groups and treated as reported in the following: The functional retinal status of the patients was evaluated using the focal electroretinogram (FERG) and the multifocal electroretinogram (mfERG) methods, before and after 6 months treatment. These two methods are useful for evaluating the electrical activity of the 30° retinal centres (Invest. Ophthalmol. Vis. Sci., 1986; 27: 1123-1130; Eye, 2005; 19:431-441).

[2] = tested on: corneal epithelium; assay: protective effect on the corneal epithelium against UV A/B radiation in rabbits (morphology, TUNEL); format: in vivo, rabbit; conditions: for damage to the DNA (TUNEL) / corneal tissue morphology (hematoxylin-eosin): treated left eye after UV exposure; for corneal tissue morphology (hematoxylin-eosin): compared with untreated animals; for EYE LEFT Score (arbitrary scale): treated left eye, instilled every 2 hours for eight hours, then 2091 seconds of UV 290/360 nm, Negative Control = 10, UV-exposed untreated right eye = 1
Protocol: In all the groups treated (groups 1-4) the right eye acted as a positive control. The following compositions were instilled respectively into the left eye every 2 hours for eight hours:
Then the animals were exposed for 2091 seconds to UV radiation using a xenon-mercury lamp, 5000 W, 290/360 nm, (Photochem. Photobiol. 1989; 49:175-180) after which the animals were killed and the eyeballs removed and placed in a fixative (4% paraformaldehyde). The cornea was then removed, included in paraffin and then evaluated for its morphological aspects and the cellular degeneration. The morphology was examined by means of hematoxylin-eosin staining whereas the cellular parameters were examined with vital exclusion stains and the TUNEL technique (analysis of DNA fragmentation, by means of terminal transferase, as a consequence of cellular stress) (Arch. Ophthalmol. 1987; 115:1031-1035).

[3] = solubility of 3-HKG in water; format: physicochemical; conditions: amount of 0.1 mg/mL (as in WO2008/077712)

SMILES | amplitudes found with the FERG [1] | mfERG [1] | SCORE AFTER 6 MONTHS OF TREATMENT (ARBITRARY SCALE) [1] | damage to the DNA (TUNEL) [2] | corneal tissue morphology (hematoxylin-eosin) [2] | EYE LEFT Score (arbitrary scale) [2] | solubility in water [3]
Nc1c(O[C@@H]2O[C@H](CO)[C@@H](O)[C@H](O)[C@H]2O)cccc1C(=O)CC(N)C(=O)O (mixture of isomers) [Group 3, 3-Hydroxykynurenine O-β-DL-glucoside] | substantial stability | significant worsening | −4 arbitrary scale | no damage to the DNA was seen | tissue appeared damaged although this was not very apparent | 4 arbitrary scale | not (completely) soluble in water
C[N+](C)(C)C[C@H](O)CC(=O)[O-] [Group 2, L-carnitine] | reduction | significant worsening | −6 arbitrary scale | no damage to the DNA was seen | tissue appeared damaged | 3 arbitrary scale | –
